Here are results for 21 molecules from US8809369B2, “Tetrahydroquinoline derivatives” (Hoffmann-La Roche Inc., priority 2011, dated 2014).

Experiment [1] concerns ACC (acetyl-CoA carboxylase). Description: p-ACC expression level in L6 cell line by Western blot. Format: cell-based. Conditions: Rattus norvegicus, L6 cells, 2 hours compound treatment, read-out: Activity AC1.3 (ACCp). The protocol:
(§1) Evaluation of p-AMPK and p-ACC expression level in L6 cell line by Western-Blot
(§2) This method evaluates the changes of AMP-activated protein kinase (AMPK) and ACC (acetyl-CoA carboxylase) activity by small molecular modulators through detecting the level of p-AMPK and p-ACC proteins in L6 cells using Western blot.
(§3) L6 cells are maintained in DMEM medium supplemented with 10% FBS in 10-cm dishes. Prior to compounds treatment, L6 cells are seeded in 12-well-plates at concentration of 3×10^4 cells per well. After 24 hours of incubation in 12-well plates, L6 cells are differentiated by replacing the 10% FBS-DMEM medium with 2% FBS-DMEM. Differentiation usually takes 5 days, during which the culture medium is changed every 2 days.
(§4) The compound concentrations typically range from 32 μM to 0.5 μM with 2-fold dilution in 2 ml DMEM and 7 doses. The final DMSO concentration is 0.4%. Berberine is used as a positive control at concentration of 16 μM. Before compound treatment, starve L6 cells for 2 hours by replacing the medium with DMEM, and then gently aspirate the media from each well. Add the compounds into the plates and incubate at 37 degree 5% CO2 for 2 hours.
(§5) Prepare lysis buffer (RIPA buffer with protease-inhibitors and phosphorate-inhibitors) and place it on ice. After two hour's compound treatment, aspirate the medium from 12-well plates, add 70 ul lysis buffer to each well and keep the plates on ice for 5 min. Then scrape the cell lysate off the plates and transfer it to 1.5 ml eppendorf tubes. Keep the tube on ice for more 10 min, centrifugate the lysate at 13000 rpm, 4 degrees for 15 min and transfer the supernatant to clean tubes.
(§6) Determine protein concentration for each sample using Quickstart Bradford protein quantitation kit. Mix 20 ug protein sample with 4 times loading buffer, heat them at 100° C. for 5 min, store the sample in −80° C. or perform Western blot assay directly. For Western blot assay, load 20 ug samples and 10 ul Pre-stained Protein Maker into 4-12% SDS-PAGE gradient gel. Run the samples at 100 V in the stacking gel and at 120 V in resolving gel until the Bromophenol dye reaches the bottom. Transfer the electrophoresed proteins to a PVDF membrane using Bio-Rad's Transblot for 120 min at 300 mA. Following the completion of transfer, the membrane is blocked with 5% non-fat milk for 2 hours at room temperature before incubated with primary antibody (p-AMPK and p-ACC) at 4° C. overnight. On the next day wash the membrane twice with TBST, add secondary antibody and incubate for 1 hour at room temperature. Wash the membrane twice with TBST. Develop p-AMPK and p-ACC protein expression level on the film in dark room with Amersham ECL plus kit. The bands of each sample are quantitated by Bio-Rad system, The AC1.3 value is analyzed using Prism 5.0.

In experiment [2] the test system is AMP-activated protein kinase (AMPK). Description: p-AMPK expression level in L6 cell line by Western blot. Format: cell-based. Conditions: L6 cells, 2 hours compound treatment. The protocol:
as §1, §2, §3, §4, §5, §6

For `CC1(C)CC(c2cc(F)cc(N3CCOCC3)c2)Nc2ccc(C(=O)NS(C)(=O)=O)cc21` (centres unmarked) [Example 4, N-[2-(3-fluoro-5-morpholin-4-yl-phenyl)-4,4-dimethyl-1,2,3,4-tetrahydro-quinoline-6-carbonyl]-methanesulfonamide], in experiment [1], the EC (1.3-fold) is 6.23 µM. Besides, in experiment [2], the “Activity AC1.3 (AMPKp)” value was found to be 6.76 µM.

Turning to `CC1(C)CC(c2cccc(N3CCOCC3)c2)Nc2ccc(S(=O)(=O)N3CCOCC3)cc21` (centres unmarked) [Example 12, 4,4-Dimethyl-6-(morpholine-4-sulfonyl)-2-(3-morpholin-4-yl-phenyl)-1,2,3,4-tetrahydro-quinoline], in experiment [1], the EC (1.3-fold) came out at 1.86 µM. Besides, the “Activity AC1.3 (AMPKp)” value in experiment [2] stood at 5.70 µM.

Take `CC1(C)CC(c2cccc(N3CCOCC3)c2)Nc2ccc(S(=O)(=O)NC3CCC3)cc21` (centres unmarked) [Example 15, 4,4-Dimethyl-2-(3-morpholin-4-yl-phenyl)-1,2,3,4-tetrahydro-quinoline-6-sulfonic acid cyclobutylamide]: in experiment [1], the EC (1.3-fold) came out at 0.1 µM. Also, the “Activity AC1.3 (AMPKp)” value in experiment [2] was 0.1 µM. On to `CC1(C)CC(c2cc(F)cc(N3CCOCC3)c2)Nc2ccc(S(=O)(=O)NC3CCC3)cc21` (centres unmarked) [Example 16, 2-(3-Fluoro-5-morpholin-4-yl-phenyl)-4,4-dimethyl-1,2,3,4-tetrahydro-quinoline-6-sulfonic acid cyclobutylamide], for which the EC (1.3-fold) in experiment [1] amounted to 3.21 µM. Further, the “Activity AC1.3 (AMPKp)” value in experiment [2] was determined as 19.4 µM. On to `CC1(C)CC(c2cccc(-c3ccccc3O)c2)Nc2ccc(S(=O)(=O)NC3CCC3)cc21` (centres unmarked) [Example 17, 2-(2′-Hydroxy-biphenyl-3-yl)-4,4-dimethyl-1,2,3,4-tetrahydro-quinoline-6-sulfonic acid cyclobutylamide], for which, in experiment [1], the EC (1.3-fold) turned out to be 0.05 µM. Further, in experiment [2], the “Activity AC1.3 (AMPKp)” value turned out to be 0.41 µM. Take `CC1(C)CC(c2cccc(C(F)(F)F)c2)Nc2ccc(C(=O)NS(C)(=O)=O)cc21` (centres unmarked) [Example 30, N-[4,4-dimethyl-2-(3-trifluoromethyl-phenyl)-1,2,3,4-tetrahydro-quinoline-6-carbonyl]-methanesulfonamide]: the EC (1.3-fold) in experiment [1] was found to be 0.002 µM. Still for that read-out and setting: for `CC1(C)CC(c2cccc(C(F)(F)F)c2)Nc2ccc(C(=O)NS(=O)(=O)C3CC3)cc21` (centres unmarked) [Example 31, Cyclopropanesulfonic acid [4,4-dimethyl-2-(3-trifluoromethyl-phenyl)-1,2,3,4-tetrahydro-quinoline-6-carbonyl]-amide] the value was 2 µM; for `CC(C)(C)c1ccc(-c2cccc(C3CC(C)(C)c4cc(C(=O)NS(C)(=O)=O)ccc4N3)c2)cc1` (centres unmarked) [Example 39, N-[2-(4′-tert-butyl-biphenyl-3-yl)-4,4-dimethyl-1,2,3,4-tetrahydro-quinoline-6-carbonyl]-methanesulfonamide], 1.4 µM.

Consider `CC1(C)CC(c2cccc(-c3nnnn3C3CC3)c2)Nc2ccc(C(=O)NS(=O)(=O)C3CC3)cc21` (centres unmarked) [Example 41, Cyclopropanesulfonic acid {2-[3-(1-cyclopropyl-1H-tetrazol-5-yl)-phenyl]-4,4-dimethyl-1,2,3,4-tetrahydro-quinoline-6-carbonyl}-amide], for which, in experiment [1], the EC (1.3-fold) was 1.16 µM.

As to `CC(C)Oc1ccc(-c2cccc(C3CC(C)(C)c4cc(C(=O)NS(C)(=O)=O)ccc4N3)c2)cc1` (centres unmarked) [Example 45, N-[2-(4′-isopropoxy-biphenyl-3-yl)-4,4-dimethyl-1,2,3,4-tetrahydro-quinoline-6-carbonyl]-methanesulfonamide], in experiment [1], the EC (1.3-fold) was less than 8 µM.

As for `CC(C)Oc1ccc(-c2cccc(C3CC(C)(C)c4cc(C(=O)NS(=O)(=O)C5CC5)ccc4N3)c2)cc1` (centres unmarked) [Example 46, Cyclopropanesulfonic acid [2-(4′-isopropoxy-biphenyl-3-yl)-4,4-dimethyl-1,2,3,4-tetrahydro-quinoline-6-carbonyl]-amide], the EC (1.3-fold) in experiment [1] was less than 8 µM. On the same count and under the same terms, for `CCc1ccc(N2CCOCC2)cc1C1CC(C)(C)c2cc(C(=O)NS(=O)(=O)C3CC3)ccc2N1` (centres unmarked) [Example 47, Cyclopropanesulfonic acid [2-(2-ethyl-5-morpholin-4-yl-phenyl)-4,4-dimethyl-1,2,3,4-tetrahydro-quinoline-6-carbonyl]-amide] the value was 62.4 µM; for `CC1(C)CC(c2cccc(N3CCOCC3)c2)Nc2cc(C(=O)NS(C)(=O)=O)ccc21` (centres unmarked) [Example 55, N-[4,4-dimethyl-2-(3-morpholin-4-yl-phenyl)-1,2,3,4-tetrahydro-quinoline-7-carbonyl]-methanesulfonamide], 0.7 µM.

With `CC1(C)CC(c2cccc(N3CCN(c4ccccc4F)CC3)c2)Nc2c(C(=O)NS(=O)(=O)C3CC3)cc(F)cc21` (centres unmarked) [Example 60, Cyclopropanesulfonic acid (6-fluoro-2-{3-[4-(2-fluoro-phenyl)-piperazin-1-yl]-phenyl}-4,4-dimethyl-1,2,3,4-tetrahydro-quinoline-8-carbonyl)-amide], the EC (1.3-fold) in experiment [1] turned out to be 7.33 µM. With `CC1(C)CC(c2cccc(N3CCOCC3)c2)Nc2c(C(=O)NS(C)(=O)=O)cc(Cl)cc21` (centres unmarked) [Example 62, N-[6-chloro-4,4-dimethyl-2-(3-morpholin-4-yl-phenyl)-1,2,3,4-tetrahydro-quinoline-8-carbonyl]-methanesulfonamide], the EC (1.3-fold) in experiment [1] stood at 68 µM.

`CC1(C)CC(c2cccc(N3CCOCC3)c2)Nc2c(C(=O)NS(=O)(=O)C3CC3)cc(Cl)cc21` (centres unmarked) [Example 63, Cyclopropanesulfonic acid [6-chloro-4,4-dimethyl-2-(3-morpholin-4-yl-phenyl)-1,2,3,4-tetrahydro-quinoline-8-carbonyl]-amide]: the EC (1.3-fold) in experiment [1] is 5.2 µM. For `CC1(C)CC(c2cccc(N3CCOC3=O)c2)Nc2c(C(=O)NS(=O)(=O)C3CC3)cc(Cl)cc21` (centres unmarked) [Example 65, Cyclopropanesulfonic acid {6-chloro-4,4-dimethyl-2-[3-(2-oxo-oxazolidin-3-yl)-phenyl]-1,2,3,4-tetrahydro-quinoline-8-carbonyl}-amide], the EC (1.3-fold) in experiment [1] was 12.8 µM. Take `CC1(C)CC(c2cccc(N3CCCC3)c2)Nc2c(C(=O)NS(C)(=O)=O)cc(F)cc21` (centres unmarked) [Example 69, N-[6-fluoro-4,4-dimethyl-2-(3-pyrrolidin-1-yl-phenyl)-1,2,3,4-tetrahydro-quinoline-8-carbonyl]-methanesulfonamide]: the EC (1.3-fold) in experiment [1] is 0.1 µM. With `CC1(C)CC(c2cccc(N3CCCC3)c2)Nc2c(C(=O)NS(=O)(=O)C3CC3)cc(F)cc21` (centres unmarked) [Example 70, Cyclopropanesulfonic acid [6-fluoro-4,4-dimethyl-2-(3-pyrrolidin-1-yl-phenyl)-1,2,3,4-tetrahydro-quinoline-8-carbonyl]-amide], the EC (1.3-fold) in experiment [1] amounted to 0.57 µM. As for `CC(C)(C)c1ccc(-c2cncc(C3CC(C)(C)c4cc(C(=O)NS(C)(=O)=O)ccc4N3)c2)cc1` (centres unmarked) [Example 73, N-{2-[5-(4-tert-butyl-phenyl)-pyridin-3-yl]-4,4-dimethyl-1,2,3,4-tetrahydro-quinoline-6-carbonyl}-methanesulfonamide], in experiment [1], the EC (1.3-fold) amounted to 0.1 µM.

For `CN(C(=O)c1ccc2c(c1)C(C)(C)CC(c1cccc(N3CCOCC3)c1)N2)S(=O)(=O)C1CC1` (centres unmarked) [Example 75, Cyclopropanesulfonic acid [4,4-dimethyl-2-(3-morpholin-4-yl-phenyl)-1,2,3,4-tetrahydro-quinoline-6-carbonyl]-methyl-amide], in experiment [1], the EC (1.3-fold) turned out to be 0.3 µM.
